Laboratory results from PMC6828666, “Discovery of holoenzyme-disrupting chemicals as substrate-selective CK2 inhibitors” (Scientific Reports, 2019).
Structures can show the parent of a compound that is named as a salt.

Experiments:
[1] = biological target: [35S]methionine-labeled CK2α (human) (UniProt P68400); test: radioligand binding; biotinylated MBP-CK2β (250 ng/well) on streptavidin-coated 96-well plates; soluble [35S]methionine-labeled CK2α (10^5 cpm) with or without competitor; 50 mM Tris/HCl pH 7.2, 0.4 M NaCl; 1 h at room temperature, washed three times, scintillation counting
CK2α2β2 holoenzyme = biological target: T1, CK2α2β2 holoenzyme (Homo sapiens, UniProt P68400); test: CK2 kinase assay with CK2β-dependent peptide substrate (eIF2-derived); type: biochemical; conditions: compound at 50 μM; CK2β-dependent peptide substrate
T1 construct: made in house; host or cells: Escherichia coli (CK2α)
Protocol: First, all the compounds were dissolved at 200 μM in 50 mM Tris-HCl pH 7.5 buffer containing 0.1 M NaCl and 5% DMSO; the compounds that precipitated under these conditions were discarded. The 32 remaining compounds were diluted at 200 μM in the kinase buffer and centrifuged at 14,000 g. The supernatant was then assayed for ability to inhibit phosphorylation of a CK2β-dependent peptide substrate. For this, a 22-residue long N-terminal fragment of the eukaryotic translation initiation factor 2 (eIF2), known to be exclusively phosphorylated by the CK2α2β2 holoenzyme[4] was used as a substrate. […]
Final concentration of ATP was 100 μM. Assays were performed under linear kinetic conditions for 5 min at room temperature before termination by the addition of 60 μL of 4% TCA. ^32P incorporation in peptide substrate was determined as previously described. […]

CK2α = CK2α (Homo sapiens, UniProt P68400); test: SPR binding studies on captured GST-CK2α; conditions: surface plasmon resonance
Protocol: SPR competition studies (Fig. 2i) were performed using a BIAcore 3000 instrument (BIAcore AB) equipped with a CM5 sensor chip (BIAcore AB). After activation with a solution of N-hydroxysuccinimide and N-ethyl-N-(dimethylaminopropyl)carbodiimide hydrochloride (coupling solution BIAcore AB), the anti-GST antibody diluted at 30 μg/ml in 10 mM acetate buffer pH 5.0 was injected at a flow rate of 5 μL/min for 7 min. All the surfaces were blocked with a 3 min injection at 10 μL/min of 1 M ethanolamine, pH 8.0. GST-CK2α (50 μg/ml) was immobilized on the surface at a flow rate of 5 μL/min in HBS (10 mM Hepes pH 7.3, 0.15 M NaCl, 3 mM EDTA, 0.005% polysorbate 20). MBP-CK2β diluted at 50 μg/ml in HBS buffer was injected over the surface at a flow rate of 5 μL/min in presence of various compound 1 concentration. Regeneration of the surfaces was achieved by injection of 10 mM glycine-HCl pH 2.2. SPR binding studies (Supplementary Fig. S7) were performed using a Reichert SR7000DC instrument optical biosensor (Reichert Technologies) equipped with a CMD500m sensor chip obtained from XanTec Bioanalytics. CK2α was immobilized by a capturing approach using a monoclonal anti-GST antibody (27 kDa, Clone GST-R 6G9 produced in rat, SAB4200055 Sigma Aldrich). Prior to use, the anti-GST antibodies were purified twice by micro dialysis at 4 °C (Membrane: dialysis tubing benzoylated, 9 mm, D2272-5FT) in 10 mM sodium acetate, pH = 5. Anti-GST antibodies were immobilized using amine-coupling chemistry at 12 °C. The surfaces of all two flow cells were activated for 7 min with a 1:1 mixture of 0.1 M NHS (N-hydroxysuccinimide) and 0.1 M EDC (3-(N,N-dimethylamino) propyl-N-ethylcarbodiimide) at a flow rate of 10 μL/min. The antibody at a concentration of 30 μg/mL in 10 mM sodium acetate, pH 5.0, was immobilized at a density of 2000 RU on flow cell 2; flow cell 1 was left blank to serve as a reference surface. All the surfaces were blocked with a 3 min injection at 10 μL/min of 1 M ethanolamine, pH 8.0. GST tagged CK2α at a concentration of 50 μg/mL in 10 mM HEPES, 150 mM NaCl, 3 mM EDTA, 0.005% (v/v) polysorbate 20, pH = 7.4 was captured at a density of 900 RU on flow cell 2. In order to collect kinetic binding data, analytes in 10 mM HEPES, 150 mM NaCl, 3 mM EDTA, 0.005% (v/v) polysorbate 20, 1% DMSO (v/v), 100 μM ATP, pH = 7.4 were injected over the two flow cells at concentrations of 50, 25, 12.5, 6.25, 3.12, 1.56 μM at a flow rate of 25 μL/min and at a temperature of 25 °C. The complex was allowed to associate and dissociate for 120 s. Duplicate injections (in random order) of each sample and a buffer blank were flowed over the two surfaces. Affinities were obtained after treatments (DMSO calibration, blank and references subtractions) using the software Scrubber 2.0c.
Fig. S7. Binding kinetics of compounds 2-6 by surface plasmon resonance. For each compound, sensorgrams (black line) and global fits (orange line) are depicted with the corresponding chemical structure and the fitted kinetics parameters. Experiments show representative data of two identical repeats.

MCF10A cells = test: Cell growth inhibition (IncuCyte); type: cell-based, human; conditions: 24 h
Protocol: Cells grown on 96-well flat-bottomed plates (Corning Falcon) were tracked using an Essen IncuCyte Zoom live-cell microscopy instrument, an automated live cell imager with high-throughput capabilities and built-in data analysis. Experiments were conducted at 37 °C and 5% CO2. The software incorporated into the IncuCyte Zoom was used to analyze the images.
MCF10A and MDA-MB231 cells were seeded into 96-well plates at a density (1 × 10^4 and 2 × 10^4 cells/well, respectively) and allowed to attach overnight. Bright field images were captured every 3 h for the duration of the experiment. The detection software was calibrated specifically for MCF10A and MDA-MB231 to ensure accurate distinction of cells from empty space. Cell proliferation data were obtained by the cell confluence increment in each of the treatments and expressed as percentage relative to that of control cells.
Fig. S9. […] (a) MCF10A cells were incubated with increasing concentrations of 6 for 24 h. (b) Inset: western blot analysis of CK2 subunits in parental MCF10A cells (WT) or CK2β knockdown MCF10A cells (∆CK2β). Uncropped blots are shown in Supplementary Fig. S16. MCF10A WT (r,p) or MCF10A ∆CK2β (○,●) were incubated with DMSO (r,○) or 50 μM 6 (p,●) for the indicated time. Cell growth was monitored using an Essen IncuCyte Zoom live-cell microscopy incubator. Images were captured every 15 min for the duration of the experiment. […]

[2] = tested on: panels of different kinases; design: method as in PMID 28451126; conditions: cited from earlier work

Chain of CK2α (P68400 whole entry): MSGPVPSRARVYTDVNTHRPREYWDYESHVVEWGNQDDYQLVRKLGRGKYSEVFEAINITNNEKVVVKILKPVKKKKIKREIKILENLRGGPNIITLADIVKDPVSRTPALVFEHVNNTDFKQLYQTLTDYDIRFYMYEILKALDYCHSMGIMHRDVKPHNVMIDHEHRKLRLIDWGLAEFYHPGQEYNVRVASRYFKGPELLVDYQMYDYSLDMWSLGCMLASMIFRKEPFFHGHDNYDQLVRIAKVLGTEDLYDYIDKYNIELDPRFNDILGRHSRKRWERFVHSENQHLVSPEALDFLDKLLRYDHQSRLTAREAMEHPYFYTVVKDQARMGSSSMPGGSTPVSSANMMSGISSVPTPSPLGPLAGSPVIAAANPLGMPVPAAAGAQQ
T1 sequence (P68400 whole entry): as above
Chain of [35S]methionine-labeled CK2α (human) (P68400 whole entry): as above

Compound	inhibition at 50 µM (CK2α2β2 holoenzyme) [%]	Kd (CK2α) [µM]	further results
CK2β-derived cyclic peptide, Pc	–	–	percent inhibition of CK2α/CK2β complex formation at 60 μM [1]: 90%
O=C(OCC1CCN(CCNS(=O)(=O)c2ccccc2)CC1)c1c[nH]c2ccc(F)cc12 [Compound 5, (1-(2-(Phenylsulfonamido)ethyl)piperidin-4-yl)methyl 5-fluoro-1H-indole-3-carboxylate hydrochloride]	66	43 ± 2	–
COc1[nH]c2ccc(F)cc2c1C(=O)OCC1CCN(CCNS(=O)(=O)c2ccccc2)CC1.Cl [Compound 6, 1-(2-(Phenylsulfonamido)ethyl)piperidin-4-yl)methyl 5-fluoro-2-methoxy-1H-indole-3-carboxylate hydrochloride]	–	30 ± 2	GI50 (MCF10A cells): 22 ± 3 µM
CS(=O)(=O)NCCN1CCC(COC(=O)c2c[nH]c3ccc(F)cc23)CC1 [Compound 2, (1-(2-(Methylsulfonamido)ethyl)piperidin-4-yl)methyl 5-fluoro-1H-indole-3-carboxylate hydrochloride]	25	44 ± 6	–
O=C(O)c1ccc2c(c1)nc(Nc1cccc(Cl)c1)c1ccncc12 [CX-4945]	–	–	Gini coefficient [2]: 0.62
